Reference: publication PMC9501548, “Synthesis of Potential Antiviral Agents for SARS-CoV-2 Using Molecular Hybridization Approach” (Molecules, 2022)
pIC50: −log10 of the molar value. Values joined by “and” are separate entries in the source; they are usually repeats but may differ in a detail not shown here. Equal values may be shown once. Read-outs that look alike come from different tables or passages of the source.

Legend:
[1] = in vitro; conditions: Chlorocebus aethiops (African green monkey)
[2] = test system: SARS-CoV-2 (hCoV-19/Egypt/NRC-03/2020); test: Anti-SARS-CoV-2 IC50 determination in Vero-E6 cells (inhibition of virus-induced cytopathic effect, crystal violet); format: cell-based; conditions: for IC50: Severe acute respiratory syndrome coronavirus 2, Vero C1008, SARS-CoV-2 in Vero-E6 cells, 72 h, CPE reduction; for SI: selectivity index, ratio of CC50 relative to IC50
[3] = test system: SARS-CoV-2 (hCoV-19/Egypt/NRC-03/2020); set-up: method as in PMID 34775204; conditions: standard reference, cited from earlier work
[4] = test system: VERO-E6 cells; set-up: method as in PMID 34775204; conditions: standard reference; cited from earlier work

Row | Structure (SMILES) | melting point | CC50 at 24 h [1] | IC50 [2] | SI [2] | pIC50 ([3]; anti-SARS-CoV-2) | SI ([3]; ratio of CC50 relative to IC50) | CC50 [4]
1 | O=C1C(=Cc2cn(CCCOc3cc(C(F)(F)F)nc4ccccc34)c3ccccc23)SC(=S)N1CCc1ccccc1 (mixture of isomers) [9a, (E/Z)-3-Phenethyl-2-thioxo-5-((1-(3-((2-(trifluoromethyl)quinolin-4-yl)oxy)propyl)-1H-indol-3-yl)methylene)thiazolidin-4-one] | 185 to 187 °C | 210 µg/mL | – | – | – | – | –
2 | O=C1C(=Cc2cn(CCCOc3cc(C(F)(F)F)nc4ccc(Cl)cc34)c3ccccc23)SC(=S)N1CCc1ccccc1 (mixture of isomers) [9b, (E/Z)-5-((1-(3-((6-Chloro-2-(trifluoromethyl)quinolin-4-yl)oxy)propyl)-1H-indol-3-yl)methylene)-3-phenethyl-2-thioxothiazolidin-4-one] | 176 to 179 °C | 227 µg/mL | – | – | – | – | –
3 | Cc1ccc2nc(C(F)(F)F)cc(OCCCn3cc(C=C4SC(=S)N(CCc5ccccc5)C4=O)c4ccccc43)c2c1 (mixture of isomers) [9c, (E/Z)-5-((1-(3-((6-Methyl-2-(trifluoromethyl)quinolin-4-yl)oxy)propyl)-1H-indol-3-yl)methylene)-3-phenethyl-2-thioxothiazolidin-4-one] | 182 to 184 °C | 310 µg/mL | – | – | – | – | –
4 | O=C1C(=Cc2cn(CCCCOc3cc(C(F)(F)F)nc4ccccc34)c3ccccc23)SC(=S)N1CCc1ccccc1 (mixture of isomers) [9d, (E/Z)-3-Phenethyl-2-thioxo-5-((1-(4-((2-(trifluoromethyl)quinolin-4-yl)oxy)butyl)-1H-indol-3-yl)methylene)thiazolidin-4-one] | 157 to 159 °C | 294 µg/mL and 465 µM | 257 µg/mL and 407 µM | 1.1 | – | – | –
5 | O=C1C(=Cc2cn(CCCCOc3cc(C(F)(F)F)nc4ccc(F)cc34)c3ccccc23)SC(=S)N1CCc1ccccc1 (mixture of isomers) [9e, (E/Z)-5-((1-(4-((6-Fluoro-2-(trifluoromethyl)quinolin-4-yl)oxy)butyl)-1H-indol-3-yl)methylene)-3-phenethyl-2-thioxothiazolidin-4-one] | 160 to 162 °C | 305 µg/mL and 469 µM | 276 µg/mL and 424 µM | 1.1 | – | – | –
6 | O=C1C(=Cc2cn(CCCCOc3cc(C(F)(F)F)nc4ccc(Cl)cc34)c3ccccc23)SC(=S)N1CCc1ccccc1 (mixture of isomers) [9f, (E/Z)-5-((1-(4-((6-Chloro-2-(trifluoromethyl)quinolin-4-yl)oxy)butyl)-1H-indol-3-yl)methylene)-3-phenethyl-2-thioxothiazolidin-4-one] | 181 to 183 °C | 370 µg/mL and 555 µM | 109 µg/mL and 164 µM | 3.4 | – | – | –
7 | Cc1ccc2nc(C(F)(F)F)cc(OCCCCn3cc(C=C4SC(=S)N(CCc5ccccc5)C4=O)c4ccccc43)c2c1 (mixture of isomers) [9g, (E/Z)-5-((1-(4-((6-Methyl-2-(trifluoromethyl)quinolin-4-yl)oxy)butyl)-1H-indol-3-yl)methylene)-3-phenethyl-2-thioxothiazolidin-4-one] | 175 to 177 °C | 591 µg/mL | – | – | – | – | –
8 | O=C1C(=Cc2cn(CCCCCCOc3cc(C(F)(F)F)nc4ccccc34)c3ccccc23)SC(=S)N1CCc1ccccc1 (mixture of isomers) [9h, (E/Z)-3-Phenethyl-2-thioxo-5-((1-(6-((2-(trifluoromethyl)quinolin-4-yl)oxy)hexyl)-1H-indol-3-yl)methylene)thiazolidin-4-one] | 180 to 182 °C | 258 µg/mL | – | – | – | – | –
9 | O=C1C(=Cc2cn(CCCCCCOc3cc(C(F)(F)F)nc4ccc(F)cc34)c3ccccc23)SC(=S)N1CCc1ccccc1 (mixture of isomers) [9i, (E/Z)-5-((1-(6-((6-Fluoro-2-(trifluoromethyl)quinolin-4-yl)oxy)hexyl)-1H-indol-3-yl)methylene)-3-phenethyl-2-thioxothiazolidin-4-one] | 185 to 187 °C | 262 µg/mL | – | – | – | – | –
10 | O=C1C(=Cc2cn(CCCCCCOc3cc(C(F)(F)F)nc4ccc(Cl)cc34)c3ccccc23)SC(=S)N1CCc1ccccc1 (mixture of isomers) [9j, (E/Z)-5-((1-(6-((6-Chloro-2-(trifluoromethyl)quinolin-4-yl)oxy)hexyl)-1H-indol-3-yl)methylene)-3-phenethyl-2-thioxothiazolidin-4-one] | 184 to 186 °C | 380 µg/mL | – | – | – | – | –
11 | Cc1ccc2nc(C(F)(F)F)cc(OCCCCCCn3cc(C=C4SC(=S)N(CCc5ccccc5)C4=O)c4ccccc43)c2c1 (mixture of isomers) [9k, (E/Z)-5-((1-(6-((6-Methyl-2-(trifluoromethyl)quinolin-4-yl)oxy)hexyl)-1H-indol-3-yl)methylene)-3-phenethyl-2-thioxothiazolidin-4-one] | 148 to 150 °C | 201 µg/mL and 299 µM | 160 µg/mL and 238 µM | 1.3 | – | – | –
12 | O=C1C(=Cc2cn(C/C=C/COc3cc(C(F)(F)F)nc4ccccc34)c3ccccc23)SC(=S)N1CCc1ccccc1 (mixture of isomers) [10a, (E/Z)-3-Phenethyl-2-thioxo-5-((1-((E)-4-((2-(trifluoromethyl)quinolin-4-yl)oxy)but-2-en-1-yl)-1H-indol-3-yl)methylene)thiazolidin-4-one] | 179 to 181 °C | 370 µg/mL | – | – | – | – | –
13 | Cc1ccc2nc(C(F)(F)F)cc(OC/C=C/Cn3cc(C=C4SC(=S)N(CCc5ccccc5)C4=O)c4ccccc43)c2c1 (mixture of isomers) [10b, (E/Z)-5-((1-((E)-4-((6-Methyl-2-(trifluoromethyl)quinolin-4-yl)oxy)but-2-en-1-yl)-1H-indol-3-yl)methylene)-3-phenethyl-2-thioxothiazolidin-4-one] | 168 to 170 °C | 290 µg/mL | – | – | – | – | –
14 | CCN(CCO)CCCC(C)Nc1ccnc2cc(Cl)ccc12 (stereo not shown) [Hydroxychloroquine] | – | – | – | – | 4.53 | 12.2 | 356 µM
